According to patent US7371766B2, “Curcumin analogs with anti-tumor and anti-angiogenic properties” (Emory University, priority 1999, dated 2008):
Read-outs that look alike come from different tables or passages of the source.

Assays:
RPMI-7951 human melanoma = assay: Neutral Red Assay, cell viability, RPMI-7951; conditions: for Neutral Red Uptake, %: 72 hours; for viability at 5 µM / viability at 20 µM: Homo sapiens
MOLT-4 = assay: cells; conditions: Homo sapiens, MOLT-4, 48 h
SR = assay: cells; conditions: Homo sapiens, 48 h
A549 = assay: cells; conditions: Homo sapiens, A549, 48 h
EKVX = assay: cells; conditions: Homo sapiens, 48 h
NCI-H522 = assay: cells; conditions: Homo sapiens, NCI-H522, 48 h
COLO 205 = assay: cells; conditions: Homo sapiens, COLO 205, 48 h
HCT-15 = assay: cells; conditions: Homo sapiens, HCT-15, 48 h
SF-268 = assay: cells; conditions: Homo sapiens, SF-268, 48 h
SNB-19 = assay: cells; conditions: Homo sapiens, SNB-19, 48 h
SNB-75 = assay: cells; conditions: Homo sapiens, SNB-75, 48 h
M14 = assay: cells; conditions: Homo sapiens, M14, 48 h
SK-MEL-2 = assay: cells; conditions: Homo sapiens, SK-MEL-2, 48 h
SK-MEL-28 = assay: cells; conditions: Homo sapiens, SK-MEL-28, 48 h
SK-MEL-5 = assay: cells; conditions: Homo sapiens, SK-MEL-5, 48 h, read-out: Median Growth Inhibitory Concentration (GI50)
UACC-257 = assay: cells; conditions: Homo sapiens, UACC-257, 48 h
IGROV1 = assay: cells; conditions: Homo sapiens, IGROV-1, 48 h
OVCAR-5 = assay: cells; conditions: Homo sapiens, OVCAR-5, 48 h
OVCAR-8 = assay: cells; conditions: Homo sapiens, OVCAR-8, 48 h
SK-OV-3 = assay: cells; conditions: Homo sapiens, SK-OV-3, 48 h
ACHN = assay: cells; conditions: Homo sapiens, 48 h
RXF 393 = assay: cells; conditions: Homo sapiens, RXF 393, 48 h
SN12C = assay: cells; conditions: Homo sapiens, 48 h
TK-10 = assay: cells; conditions: Homo sapiens, TK-10, 48 h
UO-31 = assay: cells; conditions: Homo sapiens, UO-31, 48 h
MCF-7 = assay: cells; conditions: Homo sapiens, MCF7, 48 h
HS 578T = assay: cells; conditions: Homo sapiens, 48 h
T-47D = assay: cells; conditions: Homo sapiens, T47D, 48 h
[1] = test system: Sixty human tumor cell lines; assay: cells; conditions: 48 h
[2] = read-out: Median Growth Inhibitory Concentration (GI50)
[3] = read-out: Median Lethal Concentration (LC50)
[4] = RPMI-7951, 72 h, read-out: Neutral Red Uptake, %
[5] = RPMI-7951, read-out: Cell Viability

3,5-Bis(2-hydroxybenzylidene)-sulfone [EF11]
93%: Cell Viability (RPMI-7951 human melanoma; RPMI-7951, 20 μM, DMSO = 100)

N.N.[Cl][Pt][Cl] [Cisplatin, reference compound]
100 % of control: Neutral Red Uptake, % (RPMI-7951 human melanoma; RPMI-7951, 5 μM) | Neutral Red Uptake, % (RPMI-7951 human melanoma; RPMI-7951, 20 μM)

COc1cc(/C=C/C(=O)CC(=O)/C=C/c2ccc(O)c(OC)c2)ccc1O [Curcumin]
14%: viability at 20 µM (RPMI-7951 human melanoma; [4])
6.7 µM: GI50 ([1]; read-out: Median Growth Inhibitory Concentration (GI50), Mean)
100%: viability at 5 µM (RPMI-7951 human melanoma; [4])
10 µM: GI50 (HS 578T; [2])
79.4 µM: CC50 (MOLT-4; [3]) | CC50 (SR; [3]) | CC50 (A549; [3]) | CC50 (EKVX; [3]) | CC50 (NCI-H522; [3]) | CC50 (HCT-15; [3]) | CC50 (SK-MEL-2; [3]) | CC50 (IGROV1; [3]) | CC50 (OVCAR-5; [3]) | CC50 (OVCAR-8; [3])
66 µM: CC50 ([1]; read-out: Median Lethal Concentration (LC50), Mean)
3.2 µM: GI50 (SR; [2]) | GI50 (RXF 393; [2]) | GI50 (MCF-7; [2])
105%: viability at 5 µM (RPMI-7951 human melanoma; [5])
12.6 µM: GI50 (A549; [2]) | GI50 (COLO 205; [2]) | GI50 (UACC-257; [2]) | GI50 (ACHN; [2]) | GI50 (UO-31; [2])
7.9 µM: GI50 (SNB-19; [2]) | GI50 (SK-MEL-5) | GI50 (IGROV1; [2]) | GI50 (OVCAR-8; [2]) | GI50 (SK-OV-3; [2]) | GI50 (SN12C; [2]) | GI50 (T-47D; [2])
47%: viability at 20 µM (RPMI-7951 human melanoma; [5])
15.8 µM: GI50 (EKVX; [2]) | GI50 (SK-MEL-2; [2]) | GI50 (OVCAR-5; [2]) | GI50 (TK-10; [2])
4 µM: GI50 (HCT-15; [2]) | GI50 (M14; [2])
5 µM: GI50 (MOLT-4; [2]) | GI50 (NCI-H522; [2]) | GI50 (SK-MEL-28; [2])
50.1 µM: CC50 (SNB-75; [3]) | CC50 (M14; [3]) | CC50 (SK-MEL-28; [3]) | CC50 (UACC-257; [3]) | CC50 (SK-OV-3; [3]) | CC50 (RXF 393; [3]) | CC50 (UO-31; [3])
< 100 µM: CC50 (SF-268; [3]) | CC50 (MCF-7; [3]) | CC50 (HS 578T; [3]) | CC50 (T-47D; [3])
6.3 µM: GI50 (SF-268; [2]) | GI50 (SNB-75; [2])
63.1 µM: CC50 (COLO 205; [3]) | CC50 (SNB-19; [3]) | CC50 (ACHN; [3]) | CC50 (SN12C; [3]) | CC50 (TK-10; [3])
